According to US20210030678A1, “CANNABINOID AND CBD LIPOSOME FORMULATIONS AND USES THEREOF” (Medterra Pharma, priority 2019, published 2021):

System: circulating TNFα
Assay: Circulating TNFα versus time post inflammatory trigger (FIG. 17)
Type: in vivo
Conditions: systemic inflammatory event; equal doses
Excerpt: FIG. 17 includes a graph illustrating the relative percentage of circulating TNFα versus time post inflammatory trigger for a control, CBD and packaged CBD application.

Compound: C=C(C)[C@@H]1CCC(C)=C[C@H]1c1c(O)cc(CCCCC)cc1O [CBD, Cannabidiol]
- effect on relative concentration of circulating TNFα: able to quell a systemic inflammatory event
